Earlier results, collected in publication PMC12371493 (ACS Bio & Med Chem Au, 2025).

Test system: MC38-hPD-L1 tumor
Details: dosed SubQ; ref not given

**Q.** For CO[C@H]1[C@H]2OP(=O)(O)OC[C@@]34C[C@@H]3[C@@H](n3cnc5c(N)ncnc53)[C@H](O)[C@@H]4O[P@](=O)(S)OC[C@H]1O[C@H]2n1cnc2c(=O)[nH]c(N)nc21 [ALG-031048], which “reduction of MC38-hPD-L1 tumor” value is on record?
**A.** could reduce MC38-hPD-L1tumor, albeit modestly
